{
  "source": "patent EP4682145A1",
  "about": "“BENZOHETEROCYCLIC COMPOUND, AND PREPARATION METHOD THEREFOR AND USE THEREOF” (Cascade Pharmaceuticals, Inc., priority 2023, dated 2024)",
  "data": [
    {"target": "T1, human FFAR1 (GPR40) (Homo sapiens, UniProt O14842)", "T1 construct": "Flag; expressed in transfected cells; host or cells: HEK293T", "T1 sequence (O14842 whole entry)": "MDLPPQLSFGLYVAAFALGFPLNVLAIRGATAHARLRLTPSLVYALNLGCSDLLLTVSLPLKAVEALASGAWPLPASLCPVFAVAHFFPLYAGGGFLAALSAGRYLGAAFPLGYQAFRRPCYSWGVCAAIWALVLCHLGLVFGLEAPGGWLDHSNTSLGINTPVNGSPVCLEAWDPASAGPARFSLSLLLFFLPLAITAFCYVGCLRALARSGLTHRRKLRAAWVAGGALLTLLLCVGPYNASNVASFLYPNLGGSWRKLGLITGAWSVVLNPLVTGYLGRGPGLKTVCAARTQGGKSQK", "experiment": "NFAT-RE-based reporter gene activity assay (Dual-Glo luciferase) for GPR40 agonistic activity in co-transfected HEK293T cells", "format": "cell-based", "conditions": "4-hour treatment", "summary_of_the_method": "(§1)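 HEK293T cells co-transfected with human FFAR1, NFAT-RE firefly luciferase and TK-Renilla plasmids; 24 h later treated 4 h with 10 half-log compound dilutions from 1 µM. Firefly/Renilla ratio normalised to DMSO; EC50 from four-parameter fit.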", "units": {"EC50": "nM"}, "values": [
      {"smiles": "COc1ccc(F)c(N2CCC(c3oc4cc(C(CC(=O)O)C5CC5)ccc4c3-c3cccc(N(CC(C)(C)C)C(C)=O)c3)CC2)c1", "note": "(stereo not drawn) [Compound 190]", "EC50": "100 to 500"},
      {"smiles": "COc1ccc(F)c(N2CCC(c3oc4cc(C(CC(=O)O)C5CC5)ccc4c3-c3cccc(N(C(C)=O)C(C)C)c3)CC2)c1", "note": "(stereo not drawn) [Compound 191]", "EC50": "100 to 500"},
      {"smiles": "COc1ccc(F)c(N2CCC(c3oc4cc(C(CC(=O)O)C5CC5)ccc4c3-c3cccc(N4CCCC4(C)C)c3)CC2)c1", "note": "(stereo not drawn) [Compound 192]", "EC50": "100 to 500"},
      {"smiles": "COc1ccc(F)c(N2CCC(c3oc4cc(C(CC(=O)O)C5CC5)ccc4c3-c3cccc(-n4cccn4)c3)CC2)c1", "note": "(stereo not drawn) [Compound 193]", "EC50": "100 to 500"},
      {"smiles": "COc1ccc(F)c(N2CCC(c3oc4cc([C@@H](CC(=O)O)C5CC5)ccc4c3-c3ccc(C(=O)NCC(C)(C)C)cc3)CC2)c1", "note": "[Compound 198]", "EC50": "100 to 500"},
      {"smiles": "COc1ccc(F)c(N2CCC(c3oc4cc(C(CC(=O)O)C5CC5)ccc4c3-c3ccc(C(=O)N4CCCC4)cc3)CC2)c1", "note": "(stereo not drawn) [Compound 200]", "EC50": "100 to 500"},
      {"smiles": "COc1ccc(F)c(N2CCC(c3oc4cc(C(CC(=O)O)C5CC5)ccc4c3-c3ccc(C(=O)N(C)CC(C)(C)C)cc3)CC2)c1", "note": "(stereo not drawn) [Compound 202]", "EC50": "100 to 500"},
      {"smiles": "COc1ccc(Cl)c(N2CCC(c3oc4cc(C(CC(=O)O)C5CC5)ccc4c3-c3cccc(C(C)(C)C)c3)CC2)c1", "note": "(stereo not drawn) [Compound 203]", "EC50": "100 to 500"},
      {"smiles": "COc1cc(OC)cc(N2CCC(c3oc4cc(C(CC(=O)O)C5CC5)ccc4c3-c3ccc(C(C)(C)C)cc3)CC2)c1", "note": "(stereo not drawn) [Compound 205]", "EC50": "100 to 500"},
      {"smiles": "COc1cc(N2CCC(c3oc4cc(C(CC(=O)O)C5CC5)ccc4c3-c3ccc(C(C)(C)C)cc3)CC2)ccc1F", "note": "(stereo not drawn) [Compound 206]", "EC50": "100 to 500"},
      {"smiles": "CC(C)(C)c1ccc(-c2c(C3CCN(c4ccc5c(c4)OCC5)CC3)oc3cc(C(CC(=O)O)C4CC4)ccc23)cc1", "note": "(stereo not drawn) [Compound 208]", "EC50": "100 to 500"},
      {"smiles": "CC(C)(C)c1ccc(-c2c(C3CCN(c4ccc5ccoc5c4)CC3)oc3cc(C(CC(=O)O)C4CC4)ccc23)cc1", "note": "(stereo not drawn) [Compound 209]", "EC50": "100 to 500"},
      {"smiles": "Cc1cccc(-c2c(C3CCN(c4ccc5c(c4)OCO5)CC3)oc3cc(C(CC(=O)O)C4CC4)ccc23)c1", "note": "(stereo not drawn) [Compound 210]", "EC50": "100 to 500"},
      {"smiles": "COc1cccc(-c2c(C3CCN(c4ccc5c(c4)OCO5)CC3)oc3cc(C(CC(=O)O)C4CC4)ccc23)c1", "note": "(stereo not drawn) [Compound 211]", "EC50": "100 to 500"},
      {"smiles": "CC(C)(C)c1ccc(-c2c(C3CCN(c4ccc5c(c4)OCO5)CC3)oc3cc(C(CC(=O)O)C4CC4)ccc23)cc1", "note": "(stereo not drawn) [Compound 212]", "EC50": "100 to 500"},
      {"smiles": "CC(C)(C)c1ccc(-c2c(C3CCN(c4ccc5c(c4)OCO5)CC3)oc3cc([C@@H](CC(=O)O)C4CC4)ccc23)cc1", "note": "[Compound 213]", "EC50": "10 to 100"},
      {"smiles": "CC(C)(C)c1ccc(-c2c(C3CCN(c4ccc5ncoc5c4)CC3)oc3cc(C(CC(=O)O)C4CC4)ccc23)cc1", "note": "(stereo not drawn) [Compound 214]", "EC50": "100 to 500"},
      {"smiles": "CC(C)(C)c1ccc(-c2c(C3CCN(c4ccc5c(c4)OCCO5)CC3)oc3cc(C(CC(=O)O)C4CC4)ccc23)cc1", "note": "(stereo not drawn) [Compound 215]", "EC50": "100 to 500"}
    ]},
    {"target": "T1, human FFAR1 (GPR40)", "experiment": "NFAT-RE-based reporter gene activity assay (Dual-Glo luciferase) for GPR40 agonistic activity in co-transfected HEK293T cells", "format": "cell-based", "conditions": "4-hour treatment, class symbols", "summary_of_the_method": "as §1", "values": [
      {"smiles": "COc1ccc(F)c(N2CCC(c3oc4cc(C(CC(=O)O)C5CC5)ccc4c3-c3cccc(N(CC(C)(C)C)C(C)=O)c3)CC2)c1", "note": "(stereo not drawn) [Compound 190]", "Efficacy (%)": "†† (150 ≥ Efficacy (%) > 100)"},
      {"smiles": "COc1ccc(F)c(N2CCC(c3oc4cc(C(CC(=O)O)C5CC5)ccc4c3-c3cccc(N(C(C)=O)C(C)C)c3)CC2)c1", "note": "(stereo not drawn) [Compound 191]", "Efficacy (%)": "†† (150 ≥ Efficacy (%) > 100)"},
      {"smiles": "COc1ccc(F)c(N2CCC(c3oc4cc(C(CC(=O)O)C5CC5)ccc4c3-c3cccc(N4CCCC4(C)C)c3)CC2)c1", "note": "(stereo not drawn) [Compound 192]", "Efficacy (%)": "†† (150 ≥ Efficacy (%) > 100)"},
      {"smiles": "COc1ccc(F)c(N2CCC(c3oc4cc(C(CC(=O)O)C5CC5)ccc4c3-c3cccc(-n4cccn4)c3)CC2)c1", "note": "(stereo not drawn) [Compound 193]", "Efficacy (%)": "†† (150 ≥ Efficacy (%) > 100)"},
      {"smiles": "COc1ccc(F)c(N2CCC(c3oc4cc([C@@H](CC(=O)O)C5CC5)ccc4c3-c3ccc(C(=O)NCC(C)(C)C)cc3)CC2)c1", "note": "[Compound 198]", "Efficacy (%)": "†† (150 ≥ Efficacy (%) > 100)"},
      {"smiles": "COc1ccc(F)c(N2CCC(c3oc4cc(C(CC(=O)O)C5CC5)ccc4c3-c3ccc(C(=O)N4CCCC4)cc3)CC2)c1", "note": "(stereo not drawn) [Compound 200]", "Efficacy (%)": "†† (150 ≥ Efficacy (%) > 100)"},
      {"smiles": "COc1ccc(F)c(N2CCC(c3oc4cc(C(CC(=O)O)C5CC5)ccc4c3-c3ccc(C(=O)N(C)CC(C)(C)C)cc3)CC2)c1", "note": "(stereo not drawn) [Compound 202]", "Efficacy (%)": "†† (150 ≥ Efficacy (%) > 100)"},
      {"smiles": "COc1ccc(Cl)c(N2CCC(c3oc4cc(C(CC(=O)O)C5CC5)ccc4c3-c3cccc(C(C)(C)C)c3)CC2)c1", "note": "(stereo not drawn) [Compound 203]", "Efficacy (%)": "† (100 ≥ Efficacy (%) > 50)"},
      {"smiles": "COc1cc(OC)cc(N2CCC(c3oc4cc(C(CC(=O)O)C5CC5)ccc4c3-c3ccc(C(C)(C)C)cc3)CC2)c1", "note": "(stereo not drawn) [Compound 205]", "Efficacy (%)": "† (100 ≥ Efficacy (%) > 50)"},
      {"smiles": "COc1cc(N2CCC(c3oc4cc(C(CC(=O)O)C5CC5)ccc4c3-c3ccc(C(C)(C)C)cc3)CC2)ccc1F", "note": "(stereo not drawn) [Compound 206]", "Efficacy (%)": "†† (150 ≥ Efficacy (%) > 100)"},
      {"smiles": "CC(C)(C)c1ccc(-c2c(C3CCN(c4ccc5c(c4)OCC5)CC3)oc3cc(C(CC(=O)O)C4CC4)ccc23)cc1", "note": "(stereo not drawn) [Compound 208]", "Efficacy (%)": "††† (Efficacy (%) > 150)"},
      {"smiles": "CC(C)(C)c1ccc(-c2c(C3CCN(c4ccc5ccoc5c4)CC3)oc3cc(C(CC(=O)O)C4CC4)ccc23)cc1", "note": "(stereo not drawn) [Compound 209]", "Efficacy (%)": "†† (150 ≥ Efficacy (%) > 100)"},
      {"smiles": "Cc1cccc(-c2c(C3CCN(c4ccc5c(c4)OCO5)CC3)oc3cc(C(CC(=O)O)C4CC4)ccc23)c1", "note": "(stereo not drawn) [Compound 210]", "Efficacy (%)": "†† (150 ≥ Efficacy (%) > 100)"},
      {"smiles": "COc1cccc(-c2c(C3CCN(c4ccc5c(c4)OCO5)CC3)oc3cc(C(CC(=O)O)C4CC4)ccc23)c1", "note": "(stereo not drawn) [Compound 211]", "Efficacy (%)": "††† (Efficacy (%) > 150)"},
      {"smiles": "CC(C)(C)c1ccc(-c2c(C3CCN(c4ccc5c(c4)OCO5)CC3)oc3cc(C(CC(=O)O)C4CC4)ccc23)cc1", "note": "(stereo not drawn) [Compound 212]", "Efficacy (%)": "†† (150 ≥ Efficacy (%) > 100)"},
      {"smiles": "CC(C)(C)c1ccc(-c2c(C3CCN(c4ccc5c(c4)OCO5)CC3)oc3cc([C@@H](CC(=O)O)C4CC4)ccc23)cc1", "note": "[Compound 213]", "Efficacy (%)": "†† (150 ≥ Efficacy (%) > 100)"},
      {"smiles": "CC(C)(C)c1ccc(-c2c(C3CCN(c4ccc5ncoc5c4)CC3)oc3cc(C(CC(=O)O)C4CC4)ccc23)cc1", "note": "(stereo not drawn) [Compound 214]", "Efficacy (%)": "† (100 ≥ Efficacy (%) > 50)"},
      {"smiles": "CC(C)(C)c1ccc(-c2c(C3CCN(c4ccc5c(c4)OCCO5)CC3)oc3cc(C(CC(=O)O)C4CC4)ccc23)cc1", "note": "(stereo not drawn) [Compound 215]", "Efficacy (%)": "†† (150 ≥ Efficacy (%) > 100)"}
    ]}
  ]
}
